Test results as given in patent publication US10533003B2, “Polyheteroarl histone deacetylase inhibitors and their use in therapy” (Karus Therapeutics Limited, priority 2014, dated 2020).

Columns and labels:
[1] = target: T1, Human HDAC1 (Homo sapiens, UniProt Q13547); assay: Biochemical HDAC inhibition assay, acetylated AMC-labeled peptide substrate, HDAC1; details: 2 hours at 30° C., read-out: IC50 (nM) HDAC 1
T1 construct: full length with C-terminal His-tag and C-terminal FLAG-tag; His-tag (C); FLAG-tag (C); host or cells: baculovirus expression system
Procedure: (§1) Activity against all zinc-dependent HDACs 1 to 11 was assessed by using an acetylated AMC-labeled peptide substrate. The substrate RHKKAc was used for all class I and IIb HDACs; for HDAC8, the substrate used was RHKAcKAc. Activity against the class IIa HDACs (HDAC4, 5, 7, 9) was determined using a class IIa-specific substrate, Acetyl-Lys(trifluoroacetyl)-AMC (Lahm et al, 2007, PNAS, 104, 17335-17340). All assays were based on the AMC-labeled substrate and developer combination.
(§2) The protocol involved a two-step reaction: first, the substrate with the acetylated lysine side chain is incubated with a sample containing HDAC activity, to produce the deacetylated products, which are then digested in the second step by the addition of developer to produce the fluorescent signal proportional to the amount of deacetylated substrates.
Human HDAC1 (GenBank Accession No. NM_004964), full length with C-terminal His-tag and C-terminal FLAG-tag, MW=56 kDa, expressed in baculovirus expression system.
(§3) Assay Buffer: 50 mM Tris-HCl, pH8.0, 137 mM NaCl, 2.7 mM KCl, 1 mM MgCl2. Before use, 1 mg/mL BSA and DMSO are added.
HDAC1: 2.68 nM HDAC1 and 50 m M HDAC substrate are in the reaction buffer with 1% DMSO final. Incubate for 2 hours at 30° C.
(§4) Stage 1: Deacetylation of substrate by incubation of HDAC enzymes with corn pounds
(§5) Stage 2: Development by addition of Developer to digest the deacetylated substrate, and generate the fluorescent colour; Detection: 360/460 Ex/Em

[2] = target: T2, Recombinant human HDAC6 (Homo sapiens, UniProt Q9UBN7); assay: Biochemical HDAC inhibition assay, acetylated AMC-labeled peptide substrate, HDAC6; details: 2 hours at 30° C., read-out: IC50 (nM) HDAC 6
T2 construct: full length, MW=180 kDa, was expressed by baculovirus in Sf9 insect cells; GST (N); host or cells: Sf9 insect cells (baculovirus)
T2 sequence (Q9UBN7 1-1215): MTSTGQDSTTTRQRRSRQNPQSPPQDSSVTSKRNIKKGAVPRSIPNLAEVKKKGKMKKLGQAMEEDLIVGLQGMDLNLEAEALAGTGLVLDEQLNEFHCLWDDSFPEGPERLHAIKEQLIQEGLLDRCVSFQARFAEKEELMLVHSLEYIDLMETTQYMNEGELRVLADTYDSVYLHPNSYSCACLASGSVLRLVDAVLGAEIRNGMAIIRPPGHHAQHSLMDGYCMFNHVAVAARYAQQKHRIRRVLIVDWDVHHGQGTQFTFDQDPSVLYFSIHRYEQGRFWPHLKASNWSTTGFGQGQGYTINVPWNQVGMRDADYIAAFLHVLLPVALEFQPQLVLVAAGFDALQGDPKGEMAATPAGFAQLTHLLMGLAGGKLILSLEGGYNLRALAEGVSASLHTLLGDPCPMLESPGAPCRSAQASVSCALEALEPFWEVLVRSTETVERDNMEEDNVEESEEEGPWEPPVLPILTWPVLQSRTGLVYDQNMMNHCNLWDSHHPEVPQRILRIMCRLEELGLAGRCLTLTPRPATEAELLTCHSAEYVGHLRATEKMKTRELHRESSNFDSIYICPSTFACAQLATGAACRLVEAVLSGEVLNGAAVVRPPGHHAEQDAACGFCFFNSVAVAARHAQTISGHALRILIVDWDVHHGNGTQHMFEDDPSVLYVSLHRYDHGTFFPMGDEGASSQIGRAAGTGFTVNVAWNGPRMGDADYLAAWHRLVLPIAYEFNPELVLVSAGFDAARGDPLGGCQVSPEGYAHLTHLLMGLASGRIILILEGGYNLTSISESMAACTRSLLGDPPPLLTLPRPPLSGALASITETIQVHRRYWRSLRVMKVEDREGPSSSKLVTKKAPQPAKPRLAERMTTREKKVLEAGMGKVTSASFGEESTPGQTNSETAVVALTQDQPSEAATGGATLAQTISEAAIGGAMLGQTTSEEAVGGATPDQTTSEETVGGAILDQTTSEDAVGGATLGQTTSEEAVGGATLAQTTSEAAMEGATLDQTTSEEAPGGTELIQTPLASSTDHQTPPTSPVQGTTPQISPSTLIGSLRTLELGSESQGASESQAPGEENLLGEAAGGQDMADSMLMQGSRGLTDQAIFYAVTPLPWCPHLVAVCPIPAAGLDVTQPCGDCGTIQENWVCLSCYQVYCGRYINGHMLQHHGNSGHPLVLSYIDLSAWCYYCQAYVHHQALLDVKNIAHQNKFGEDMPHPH
Procedure: as §1, §2
Recombinant human HDAC6 (GenBank Accession No. BC069243), full length, MW=180 kDa, was expressed by baculovirus in Sf9 insect cells using an N-terminal GST tag.
as §3
HDAC6: 0.56 nM HDAC6 and […] HDAC substrate are in the reaction buffer with 1% DMSO final. Incubate for 2 hours at 30° C.
as §4, §5

T1 sequence (Q13547 whole entry): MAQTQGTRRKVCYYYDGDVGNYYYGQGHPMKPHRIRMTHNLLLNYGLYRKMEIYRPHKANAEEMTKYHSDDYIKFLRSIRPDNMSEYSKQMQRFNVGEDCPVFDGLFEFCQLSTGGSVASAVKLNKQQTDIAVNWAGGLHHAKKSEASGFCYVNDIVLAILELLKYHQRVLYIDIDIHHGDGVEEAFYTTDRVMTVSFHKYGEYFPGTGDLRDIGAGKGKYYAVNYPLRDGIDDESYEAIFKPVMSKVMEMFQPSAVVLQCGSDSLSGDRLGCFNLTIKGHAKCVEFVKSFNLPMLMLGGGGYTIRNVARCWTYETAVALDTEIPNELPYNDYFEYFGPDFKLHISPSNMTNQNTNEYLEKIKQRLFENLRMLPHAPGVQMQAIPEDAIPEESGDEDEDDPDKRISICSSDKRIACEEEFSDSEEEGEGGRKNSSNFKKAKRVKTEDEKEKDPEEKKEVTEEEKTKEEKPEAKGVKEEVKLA

Row | Structure (SMILES) | IC50 [1] | IC50 [2]
1 | Nc1ncc(-c2ccnc(N(Cc3ccc(C(=O)NO)cc3)c3cnccn3)c2)cn1 [Example A, 4-({[4-(2-Aminopyrimidin-5-yl)pyridin-2-yl](pyrazin-2-yl)amino}methyl)-N-hydroxybenzamide] | 1000 to 10000 nM | ≤ 500 nM
2 | O=C(NO)c1ccc(CN(c2cnccn2)c2cc(-c3cnc4[nH]ccc4c3)ccn2)cc1 [Example B, N-Hydroxy-4-{[(pyrazin-2-yl)(4-{1H-pyrrolo[2,3-b]pyridin-5-yl}pyridin-2-yl)amino]methyl}benzamide] | 1000 to 10000 nM | ≤ 500 nM
3 | O=C(NO)c1ccc(CN(c2cnccn2)c2cc(-c3ccc4[nH]ccc4c3)ccn2)cc1 [Example C, N-Hydroxy-4-({[4-(1H-indol-5-yl)pyridin-2-yl](pyrazin-2-yl)amino}methyl)benzamide] | 500 to 1000 nM | ≤ 500 nM
4 | O=C(NO)c1ccc(CN(c2cnccn2)c2cc(-c3cn[nH]c3)ccn2)cc1 [Example D, N-Hydroxy-4-{[(pyrazin-2-yl)[4-(1H-pyrazol-4-yl)pyridin-2-yl]amino]methyl}benzamide] | 1000 to 10000 nM | ≤ 500 nM
5 | O=C(NO)c1ccc(CN(c2cnccn2)c2cc(-c3ccoc3)ccn2)cc1 [Example E, 4-({[4-(Furan-3-yl)pyridin-2-yl](pyrazin-2-yl)amino}methyl)-N-hydroxybenzamide] | 500 to 1000 nM | ≤ 500 nM
6 | Cc1cc(-c2ccnc(N(Cc3ccc(C(=O)NO)cc3)c3cnccn3)c2)c(C)o1 [Example F, 4-({[4-(2,5-Dimethylfuran-3-yl)pyridin-2-yl](pyrazin-2-yl)amino}methyl)-N-hydroxybenzamide] | 1000 to 10000 nM | ≤ 500 nM
7 | O=C(NO)c1ccc(CN(c2cnccn2)c2cc(-c3c[nH]nc3C(F)(F)F)ccn2)cc1 [Example G, N-Hydroxy-4-{[(pyrazin-2-yl)({4-[3-(trifluoromethyl)-1H-pyrazol-4-yl]pyridin-2-yl})amino]methyl}benzamide] | 1000 to 10000 nM | ≤ 500 nM
8 | Cc1noc(C)c1-c1ccnc(N(Cc2ccc(C(=O)NO)cc2)c2cnccn2)c1 [Example H, 4-({[4-(Dimethyl-1,2-oxazol-4-yl)pyridin-2-yl](pyrazin-2-yl)amino}methyl)-N-hydroxybenzamide] | ≥ 10000 nM | ≤ 500 nM
9 | Cc1n[nH]cc1-c1ccnc(N(Cc2ccc(C(=O)NO)cc2)c2cnccn2)c1 [Example I, N-Hydroxy-4-({[4-(3-methyl-1H-pyrazol-4-yl)pyridin-2-yl](pyrazin-2-yl)amino}methyl)benzamide] | ≥ 10000 nM | ≤ 500 nM
10 | Cc1n[nH]c(C)c1-c1ccnc(N(Cc2ccc(C(=O)NO)cc2)c2cnccn2)c1 [Example J, 4-({[4-(3,5-Dimethyl-1H-pyrazol-4-yl)pyridin-2-yl](pyrazin-2-yl)amino}methyl)-N-hydroxybenzamide] | 1000 to 10000 nM | ≤ 500 nM
11 | O=C(NO)c1ccc(CN(c2cnccn2)c2cc(-c3c[nH]c4ncccc34)ccn2)cc1 [Example K, N-Hydroxy-4-{[(pyrazin-2-yl)(4-{1H-pyrrolo[2,3-b]pyridin-3-yl}pyridin-2-yl)amino]methyl}benzamide] | 1000 to 10000 nM | ≤ 500 nM
12 | O=C(NO)c1ccc(CN(c2cnccn2)c2cc(-c3cc[nH]n3)ccn2)cc1 [Example L, N-Hydroxy-4-{[(pyrazin-2-yl)[4-(1H-pyrazol-3-yl)pyridin-2-yl]amino]methyl}benzamide] | 1000 to 10000 nM | ≤ 500 nM
13 | Nc1ncc(-c2ccnc(N(Cc3ccc(C(=O)NO)cc3)c3cnccn3)c2)cc1F [Example M, 4-({[4-(6-Amino-5-fluoropyridin-3-yl)pyridin-2-yl](pyrazin-2-yl)amino}methyl)-N-hydroxybenzamide] | 1000 to 10000 nM | ≤ 500 nM
14 | CC(=O)Nc1ccc(-c2ccnc(N(Cc3ccc(C(=O)NO)cc3)c3cnccn3)c2)cn1 [Example N, 4-({[4-(6-Acetamidopyridin-3-yl)pyridin-2-yl](pyrazin-2-yl)amino}methyl)-N-hydroxybenzamide] | 1000 to 10000 nM | ≤ 500 nM
15 | CC(=O)Nc1cc(-c2ccnc(N(Cc3ccc(C(=O)NO)cc3)c3cnccn3)c2)ccn1 [Example O, 4-({[4-(2-Acetamidopyridin-4-yl)pyridin-2-yl](pyrazin-2-yl)amino}methyl)-N-hydroxybenzamide] | 1000 to 10000 nM | ≤ 500 nM
16 | Nc1ccc(-c2ccnc(N(Cc3ccc(C(=O)NO)cc3F)c3cnccn3)c2)cn1 [Example P, 4-({[4-(6-Aminopyridin-3-yl)pyridin-2-yl](pyrazin-2-yl)amino}methyl)-3-fluoro-N-hydroxybenzamide] | 500 to 1000 nM | ≤ 500 nM
17 | Nc1cc(-c2ccnc(N(Cc3ccc(C(=O)NO)cc3F)c3cnccn3)c2)ccn1 [Example Q, 4-({[4-(2-Aminopyridin-4-yl)pyridin-2-yl](pyrazin-2-yl)amino}methyl)-3-fluoro-N-hydroxybenzamide] | 1000 to 10000 nM | ≤ 500 nM
18 | CC(=O)Nc1ccc(-c2ccnc(N(Cc3ccc(C(=O)NO)cc3F)c3cnccn3)c2)cn1 [Example R, 4-({[4-(6-Acetamidopyridin-3-yl)pyridin-2-yl](pyrazin-2-yl)amino}methyl)-3-fluoro-N-hydroxybenzamide] | 1000 to 10000 nM | ≤ 500 nM
19 | CC(=O)Nc1cc(-c2ccnc(N(Cc3ccc(C(=O)NO)cc3F)c3cnccn3)c2)ccn1 [Example S, 4-({[4-(2-Acetamidopyridin-4-yl)pyridin-2-yl](pyrazin-2-yl)amino}methyl)-3-fluoro-N-hydroxybenzamide] | 1000 to 10000 nM | ≤ 500 nM
20 | CS(=O)(=O)Nc1ccc(-c2ccnc(N(Cc3ccc(C(=O)NO)cc3F)c3cnccn3)c2)cn1 [Example T, 3-Fluoro-N-hydroxy-4-({[4-(6-methanesulfonamidopyridin-3-yl)pyridin-2-yl](pyrazin-2-yl)amino}methyl)benzamide] | ≥ 10000 nM | ≤ 500 nM
21 | CS(=O)(=O)Nc1cc(-c2ccnc(N(Cc3ccc(C(=O)NO)cc3F)c3cnccn3)c2)ccn1 [Example U, 3-Fluoro-N-hydroxy-4-({[4-(2-methanesulfonamidopyridin-4-yl)pyridin-2-yl](pyrazin-2-yl)amino}methyl)benzamide] | ≥ 10000 nM | ≤ 500 nM
